What is called MIC is the smallest concentration in the dilution series that meets the test's criterion for growth inhibition.

We go through four molecules from patent publication US5675003A, “3-ammoniopropenyl cephalosporin compounds as antibacterial agents” (Korea Institute of Science and Technology, priority 1995, dated 1997).

Values after ≈ are worked out from the molar mass of the structure shown. Read-outs that look alike come from different tables or passages of the source.

Test [1] concerns Streptococcus pyogenes 308 A. Nature of the test: MIC, in vitro agar dilution method. In kind it is cell-based. On the procedure:
(§1) The MICs of the new cephalosporins of the present invention against Gram-positive and Gram-negative bacteria were determined by an in vitro agar dilution method. For comparisons, the MIC values of ceftazidime are also listed.
(§2) In vitro antimicrobial activity of the cephalosporins (l) (MIC:
S.p.1, Streptococcus pyogenes 308 A;
(In general: Agar dilution tests growth on a series of plates holding different concentrations.)

Test [2] concerns Streptococcus pyogenes A 77. Nature of the test: MIC, in vitro agar dilution method. In kind it is cell-based. The conditions noted are these: A77. On the procedure:
as §1, §2
S.p.2, Streptococcus pyogenes A 77;

Test [3] concerns Streptococcus faecium MD. Nature of the test: MIC, in vitro agar dilution method. In kind it is cell-based. The settings on record: Enterococcus faecium. On the procedure: as §1, §2
S.f., Streptococcus faecium MD;

The test system of test [4] is Staphlococcus aureus SG 511. Nature of the test: MIC, in vitro agar dilution method. In kind it is cell-based. On the procedure: as §1, §2
S.a.1, Staphlococcus aureus SG 511;

Test [5] concerns Staphylococcus aureus 285. Nature of the test: MIC, in vitro agar dilution method. The class given is cell-based. On the procedure: as §1, §2
E.c. TEM, S.a. 2, Staphylococcus aureus 285;

Test [6] deals with Staphylococcus aureus 503. Nature of the test: MIC, in vitro agar dilution method. In kind it is cell-based. On the procedure:
as §1, §2
S.a.3, Staphylococcus aureus 503;

The test system of test [7] is Escherichia coli O55. Briefly: MIC, in vitro agar dilution method. The class given is cell-based. The conditions noted are these: E.c.1, Escherichia coli O55. On the procedure:
as §1, §2
E.c.1, Escherichia coli O55;

Test [8] has as its system Escherichia coli DC0. Briefly: MIC, in vitro agar dilution method. In kind it is cell-based. The conditions noted are these: E.c.2, Escherichia coli DC0. On the procedure:
as §1, §2
E.c.2, Escherichia coli DC0;

For test [9], the system named is Escherichia coli TEM. Nature of the test: MIC, in vitro agar dilution method. The settings on record: E.c.3, Escherichia coli TEM. The class given is cell-based. On the procedure:
as §1, §2
E.c.3, Escherichia coli TEM;

The subject of test [10] is Escherichia coli 1507 E. Briefly: MIC, in vitro agar dilution method. The class given is cell-based. The settings on record: E.c.4, Escherichia coli 1507 E. On the procedure:
as §1, §2
E.c.4, Escherichia coli 1507 E;

Test [11] has as its system E.c.5. Briefly: MIC, in vitro agar dilution method. In kind it is cell-based. The conditions noted are these: Escherichia coli, E.c.5 (strain not defined). On the procedure:
as §1

The test system of test [12] is Pseudomonas aeruginosa 9027. Briefly: MIC, in vitro agar dilution method. In kind it is cell-based. On the procedure:
as §1, §2
P.a.1, Pseudomonas aeruginosa 9027;

Test [13] has as its system Pseudomonas aeruginosa 1592 E. Nature of the test: MIC, in vitro agar dilution method. The class given is cell-based. On the procedure: as §1, §2
P.a.2, Pseudomonas aeruginosa 1592 E;

The test system of test [14] is Pseudomonas eruginosa 1771. Nature of the test: MIC, in vitro agar dilution method. In kind it is cell-based. The conditions noted are these: P.a.3, Pseudomonas eruginosa 1771. On the procedure: as §1, §2
P.a.3, Pseudomonas eruginosa 1771;

Test [15] has as its system Pseudomonas aeruginosa 1771 M. Nature of the test: MIC, in vitro agar dilution method. In kind it is cell-based. On the procedure: as §1, §2
P.a.4, Pseudomonas aeruginosa 1771 M;

The test system of test [16] is Salmonella typhimurium. Nature of the test: MIC, in vitro agar dilution method. In kind it is cell-based. The conditions noted are these: Salmonella enterica. On the procedure:
as §1, §2
S.t., Salmonella typhimurium;

The test system of test [17] is Klebsiella oxytoca 1082 E. Nature of the test: MIC, in vitro agar dilution method. In kind it is cell-based. On the procedure:
as §1, §2
K.o., Klebsiella oxytoca 1082 E;

Test [18] has as its system Klebsiella aerogenes 1552 E. Briefly: MIC, in vitro agar dilution method. The class given is cell-based. On the procedure:
as §1, §2
K.a., Klebsiella aerogenes 1552 E;

In test [19] the test system is Enterobacter cloacae P 99. Nature of the test: MIC, in vitro agar dilution method. The class given is cell-based. The conditions noted are these: for MIC: Enterobacter cloacae, P99. On the procedure: as §1, §2
En.c.1, Enterobacter cloacae P 99;

Test [20] concerns Enterobacter cloacae 1321 E. Briefly: MIC, in vitro agar dilution method. The class given is cell-based. On the procedure:
as §1, §2
En.c.2, Enterobacter cloacae 1321 E.

Test [21] deals with anti-pseudomonal. The settings on record: in words, prior art; cited from earlier work.
Test [22] relates to staphylococci. The settings on record: in words, prior art; cited from earlier work.
The test system of test [23] is Enterobacter cloacae P99. The conditions noted are these: in words, prior art; cited from earlier work.
The mark [24] stands for this setting: S.p.1, Streptococcus pyogenes 308 A, agar dilution, read-out: MIC.
[25] abbreviates: S.p.2, Streptococcus pyogenes A 77, agar dilution, read-out: MIC.
[26] abbreviates: S.f., Streptococcus faecium MD, agar dilution, read-out: MIC.
Where [27] appears, read: S.a.1, Staphlococcus aureus SG 511, agar dilution, read-out: MIC.
Setting [28] is: S.a.2, Staphylococcus aureus 285, agar dilution, read-out: MIC.
Where [29] appears, read: S.a.3, Staphylococcus aureus 503, agar dilution, read-out: MIC.
Setting [30] is: P.a.1, Pseudomonas aeruginosa 9027, agar dilution, read-out: MIC.
The mark [31] stands for this setting: P.a.2, Pseudomonas aeruginosa 1592 E, agar dilution, read-out: MIC.
Where [32] appears, read: P.a.4, Pseudomonas aeruginosa 1771 M, agar dilution, read-out: MIC.
Where [33] appears, read: S.t., Salmonella typhimurium, agar dilution, read-out: MIC.
Where [34] appears, read: K.o., Klebsiella oxytoca 1082 E, agar dilution, read-out: MIC.
Setting [35] is: K.a., Klebsiella aerogenes 1552 E, agar dilution, read-out: MIC.
The mark [36] stands for this setting: En.c.2, Enterobacter cloacae 1321 E, agar dilution, read-out: MIC.

In the case of `CC(C)(O/N=C(\C(=O)N[C@@H]1C(=O)N2C(C(=O)[O-])=C(C[n+]3ccccc3)CS[C@H]12)c1csc(N)n1)C(=O)O` [Ceftazidime, ceftazidime, reference compound], the MIC in test [1] (Streptococcus pyogenes, 308A) was determined as 0.098 µg/mL (≈ 0.179 µM); in [2] (Streptococcus pyogenes), 0.049 µg/mL (≈ 0.0896 µM); in test [3], 100 µg/mL (≈ 183 µM); in [4], 12.5 µg/mL (≈ 22.9 µM); in [5] (Staphylococcus aureus, 285) it was 12.5 µg/mL (≈ 22.9 µM); in test [6] (Staphylococcus aureus, 503) it was 3.13 µg/mL (≈ 5.73 µM). Besides, the MIC in test [7] turned out to be 0.098 µg/mL (≈ 0.179 µM); in [8], 0.098 µg/mL (≈ 0.179 µM); in test [9], 0.098 µg/mL (≈ 0.179 µM); in [10], 0.2 µg/mL (≈ 0.366 µM); in [11], 0.2 µg/mL (≈ 0.366 µM); in test [12] (Pseudomonas aeruginosa, 9027) it was 3.13 µg/mL (≈ 5.73 µM). For the same molecule, the minimum inhibitory concentration (MIC) in [13] (Pseudomonas aeruginosa, 1592E) came to 0.78 µg/mL (≈ 1.43 µM); in test [14], 0.39 µg/mL (≈ 0.714 µM); in test [15] (Pseudomonas aeruginosa, 1771M), 0.098 µg/mL (≈ 0.179 µM); in test [16] (TYPHIMURIUM), 0.2 µg/mL (≈ 0.366 µM); in test [17] (Klebsiella oxytoca, 1082E), 0.39 µg/mL (≈ 0.714 µM); in test [18] (Klebsiella aerogenes, 1552E), 0.098 µg/mL (≈ 0.179 µM). For the same molecule, the MIC stood at 100 µg/mL (≈ 183 µM) in test [19] and 0.025 µg/mL (≈ 0.0457 µM) in [20] (Enterobacter cloacae, 1321E). The “activity against Enterobacter cloacae P99” value is “resistant to ceftazidime” in test [19] (in words); “less active against staphylococci and Enterobacter cloacae P99” in [23]. Moreover, in test [21], the anti-pseudomonal activity entry is “potent anti-pseudomonal activity”. Moreover, in test [22], the activity against staphylococci result was “less active against staphylococci”.

With `CO/N=C(\C(=O)N[C@@H]1C(=O)N2C(C(=O)[O-])=C(/C=C/C[N+]3(C)CC[C@H](O)[C@H](O)C3)CS[C@H]12)c1csc(N)n1` (relative stereo) [1-e, 7β-[2-(2-Aminothiazol-4-yl)-(Z)-2-methoxyiminoacetamido]-3-[(E)-3-(3,4-cis-dihydroxy-1-methyl-1-piperidinio)-1-propen-1-yl]-3-cephem-4-carboxylate], the minimum inhibitory concentration (MIC) in test [1] (setting [24]) amounted to 0.013 µg/mL (≈ 0.0235 µM); in test [2] (setting [25]), 0.013 µg/mL (≈ 0.0235 µM); in [3] (setting [26]), 50 µg/mL (≈ 90.5 µM); in [4] (setting [27]), 0.39 µg/mL (≈ 0.706 µM); in test [5] (setting [28]), 0.78 µg/mL (≈ 1.41 µM); in test [6] (setting [29]), 0.2 µg/mL (≈ 0.362 µM). For the same molecule, the minimal inhibitory concentration (MIC) was 0.025 µg/mL (≈ 0.0452 µM) in [7]; 0.049 µg/mL (≈ 0.0887 µM) in test [8]; 0.025 µg/mL (≈ 0.0452 µM) in test [9]; 0.049 µg/mL (≈ 0.0887 µM) in test [10]; 0.049 µg/mL (≈ 0.0887 µM) in [11]; 6.25 µg/mL (≈ 11.3 µM) in test [12] (setting [30]). For the same molecule, the minimal inhibitory concentration (MIC) in [13] (setting [31]) worked out at 3.13 µg/mL (≈ 5.66 µM); in test [14], 1.56 µg/mL (≈ 2.82 µM); in test [15] (setting [32]), 0.2 µg/mL (≈ 0.362 µM); in test [16] (setting [33]) it was 0.025 µg/mL (≈ 0.0452 µM); in [17] (setting [34]) it was 3.13 µg/mL (≈ 5.66 µM); in test [18] (setting [35]) it was 0.025 µg/mL (≈ 0.0452 µM). The figures for the minimal inhibitory concentration (MIC) in [19] and in [20] (setting [36]) were 6.25 µg/mL (≈ 11.3 µM) and 0.025 µg/mL (≈ 0.0452 µM), respectively.

Regarding `CO/N=C(\C(=O)N[C@@H]1C(=O)N2C(C(=O)[O-])=C(C[N+]3(C)CCCC3)CS[C@H]12)c1csc(N)n1` [Cefepime, cefepime], in test [21], the anti-pseudomonal activity result is recorded as “high anti-pseudomonal activity”. In addition, in test [22], the activity against staphylococci result is “improved anti-staphylococcaI activity”.

In the case of `CO/N=C(\C(=O)N[C@@H]1C(=O)N2C(C(=O)[O-])=C(/C=C/C[N+]3(C)C[C@H](O)C[C@H]3CO)CS[C@H]12)c1csc(N)n1` (stereo partly drawn) [1-c, 7β-[2-(2-Aminothiazol-4-yl)-(Z)-2-methoxyiminoacetamido]-3-[(E)-3-(4R-hydroxy-2S-hydroxymethyl-1-methyl-1-pyrrolidinio)-1-propen-1-yl]-3-cephem-4-carboxylate], the MIC stood at 0.013 µg/mL (≈ 0.0235 µM) in test [1] (setting [24]); 0.004 µg/mL (≈ 0.00724 µM) in [2] (setting [25]); 50 µg/mL (≈ 90.5 µM) in test [3] (setting [26]); 0.39 µg/mL (≈ 0.706 µM) in test [4] (setting [27]); 0.78 µg/mL (≈ 1.41 µM) in test [5] (setting [28]); 0.2 µg/mL (≈ 0.362 µM) in [6] (setting [29]). For the same molecule, the MIC in test [7] was found to be 0.013 µg/mL (≈ 0.0235 µM); in test [8] it was 0.049 µg/mL (≈ 0.0887 µM); in test [9] it was 0.025 µg/mL (≈ 0.0452 µM); in test [10], 0.049 µg/mL (≈ 0.0887 µM); in [11] it was 0.049 µg/mL (≈ 0.0887 µM); in test [12] (setting [30]), 6.25 µg/mL (≈ 11.3 µM). Besides, the MIC amounted to 3.13 µg/mL (≈ 5.66 µM) in test [13] (setting [31]); 1.56 µg/mL (≈ 2.82 µM) in [14]; 0.2 µg/mL (≈ 0.362 µM) in [15] (setting [32]); 0.025 µg/mL (≈ 0.0452 µM) in [16] (setting [33]); 3.13 µg/mL (≈ 5.66 µM) in test [17] (setting [34]); 0.049 µg/mL (≈ 0.0887 µM) in test [18] (setting [35]). In addition, the figures for the minimal inhibitory concentration (MIC) in test [19] and in [20] (setting [36]) were 3.13 µg/mL (≈ 5.66 µM) and 0.013 µg/mL (≈ 0.0235 µM), respectively.
